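Test compounds were applied to cells in 96-well plates for 48 hours at 5 doses. TGI: concentration producing complete growth inhibition.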
Key:
Experiment in all cases: growth of human tumour cells (NCI), 48 h
UACC-257 melanoma = test system: UACC-257 melanoma
SNB-19 CNS = test system: SNB-19 CNS
HCT-15 colon = test system: HCT-15 colon
KM12 colon = test system: KM12 colon
SK-MEL-5 melanoma = test system: SK-MEL-5 melanoma
CCRF-CEM leukemia = test system: CCRF-CEM leukemia
NCI-H226 lung = test system: NCI-H226 lung
HCC-2998 colon = test system: HCC-2998 colon
K-562 leukemia = test system: K-562 leukemia
SF-539 CNS = test system: SF-539 CNS
HOP-62 NSCLC = test system: HOP-62 NSCLC
SW-620 colon = test system: SW-620 colon
NCI-H23 lung = test system: NCI-H23 lung
BT-549 breast = test system: BT-549 breast
RPMI-8226 leukemia = test system: RPMI-8226 leukemia
NCI-H460 lung = test system: NCI-H460 lung
NCI-H522 lung = test system: NCI-H522 lung
A498 renal = test system: A498 renal
MOLT-4 leukemia = test system: MOLT-4 leukemia
TK-10 renal = test system: TK-10 renal
DU-145 prostate = test system: DU-145 prostate
CAKI-1 renal = test system: CAKI-1 renal
M14 melanoma = test system: M14 melanoma
MALME-3M melanoma = test system: MALME-3M melanoma
PC-3 prostate = test system: PC-3 prostate
SF-268 CNS = test system: SF-268 CNS
SK-OV-3 ovarian = test system: SK-OV-3 ovarian
MDA-MB-435 = test system: MDA-MB-435
SR leukemia = test system: SR leukemia
SF-295 CNS = test system: SF-295 CNS
ACHN renal = test system: ACHN renal
MDA-MB-231 breast = test system: MDA-MB-231 breast
OVCAR-8 ovarian = test system: OVCAR-8 ovarian
IGROV1 ovarian = test system: IGROV1 ovarian
HCT-116 colon = test system: HCT-116 colon
SK-MEL-28 melanoma = test system: SK-MEL-28 melanoma
SNB-75 CNS = test system: SNB-75 CNS
UO-31 renal = test system: UO-31 renal
COLO 205 colon = test system: COLO 205 colon
EKVX NSCLC = test system: EKVX NSCLC
MDA-N = test system: MDA-N
HL-60(TB) leukemia = test system: HL-60(TB) leukemia
HS 578T breast = test system: HS 578T breast
SN12C renal = test system: SN12C renal
A549 NSCLC = test system: A549 NSCLC
HT29 colon = test system: HT29 colon
T-47D breast = test system: T-47D breast
UACC-62 melanoma = test system: UACC-62 melanoma
MCF7 breast = test system: MCF7 breast
LOX IMVI melanoma = test system: LOX IMVI melanoma
786-0 renal = test system: 786-0 renal
SK-MEL-2 melanoma = test system: SK-MEL-2 melanoma
OVCAR-4 ovarian = test system: OVCAR-4 ovarian
U251 CNS = test system: U251 CNS
OVCAR-5 ovarian = test system: OVCAR-5 ovarian
OVCAR-3 ovarian = test system: OVCAR-3 ovarian
NCI/ADR-RES ovarian = test system: NCI/ADR-RES ovarian
HOP-92 NSCLC = test system: HOP-92 NSCLC

COc1cc(/C=C2\N=C(C)N(n3c(-c4ccccc4)nc4ccccc4c3=O)C2=O)cc(OC)c1OC
TGI (UACC-257 melanoma): > 100 µM
TGI (SNB-19 CNS): > 100 µM
TGI (HCT-15 colon): > 100 µM
TGI (KM12 colon): > 100 µM
TGI (SK-MEL-5 melanoma): > 100 µM
TGI (CCRF-CEM leukemia): > 100 µM
TGI (NCI-H226 lung): > 100 µM
TGI (HCC-2998 colon): > 100 µM
TGI (K-562 leukemia): > 100 µM
TGI (SF-539 CNS): > 100 µM
TGI (HOP-62 NSCLC): > 100 µM
TGI (SW-620 colon): > 100 µM
TGI (NCI-H23 lung): > 100 µM
TGI (BT-549 breast): > 100 µM
TGI (RPMI-8226 leukemia): > 100 µM
TGI (NCI-H460 lung): > 100 µM
TGI (NCI-H522 lung): > 100 µM
TGI (A498 renal): > 100 µM
TGI (MOLT-4 leukemia): > 100 µM
TGI (TK-10 renal): > 100 µM
TGI (DU-145 prostate): > 100 µM
TGI (CAKI-1 renal): > 100 µM
TGI (M14 melanoma): > 100 µM
TGI (MALME-3M melanoma): > 100 µM
TGI (PC-3 prostate): > 100 µM
TGI (SF-268 CNS): > 100 µM
TGI (SK-OV-3 ovarian): > 100 µM
TGI (MDA-MB-435): > 100 µM
TGI (SR leukemia): > 100 µM
TGI (SF-295 CNS): > 100 µM
TGI (ACHN renal): > 100 µM
TGI (MDA-MB-231 breast): > 100 µM
TGI (OVCAR-8 ovarian): > 100 µM
TGI (IGROV1 ovarian): > 100 µM
TGI (HCT-116 colon): > 100 µM
TGI (SK-MEL-28 melanoma): > 100 µM
TGI (SNB-75 CNS): > 100 µM
TGI (UO-31 renal): > 100 µM
TGI (COLO 205 colon): > 100 µM
TGI (EKVX NSCLC): > 100 µM
TGI (MDA-N): > 100 µM
TGI (HL-60(TB) leukemia): > 100 µM
TGI (HS 578T breast): > 100 µM
TGI (SN12C renal): > 100 µM
TGI (A549 NSCLC): > 100 µM
TGI (HT29 colon): > 100 µM
TGI (T-47D breast): > 100 µM
TGI (UACC-62 melanoma): > 100 µM
TGI (MCF7 breast): > 100 µM
TGI (LOX IMVI melanoma): > 100 µM
TGI (786-0 renal): > 100 µM

O=C(Cn1c(=O)oc2ccc(C(=O)c3ccccc3Cl)cc21)c1ccc([N+](=O)[O-])cc1
TGI (UACC-257 melanoma): 90.3 µM
TGI (SNB-19 CNS): > 100 µM
TGI (SK-MEL-2 melanoma): 41.6 µM
TGI (HCT-15 colon): 65.4 µM
TGI (KM12 colon): 58.1 µM
TGI (SK-MEL-5 melanoma): 40.5 µM
TGI (CCRF-CEM leukemia): > 100 µM
TGI (OVCAR-4 ovarian): > 100 µM
TGI (NCI-H226 lung): > 100 µM
TGI (HCC-2998 colon): 34.6 µM
TGI (K-562 leukemia): 83 µM
TGI (SF-539 CNS): 65.9 µM
TGI (HOP-62 NSCLC): > 100 µM
TGI (SW-620 colon): > 100 µM
TGI (NCI-H23 lung): > 100 µM
TGI (BT-549 breast): 75 µM
TGI (RPMI-8226 leukemia): 77.2 µM
TGI (NCI-H460 lung): 55.7 µM
TGI (NCI-H522 lung): 39.9 µM
TGI (A498 renal): > 100 µM
TGI (U251 CNS): > 100 µM
TGI (MOLT-4 leukemia): > 100 µM
TGI (TK-10 renal): > 100 µM
TGI (DU-145 prostate): > 100 µM
TGI (CAKI-1 renal): > 100 µM
TGI (M14 melanoma): 47.5 µM
TGI (MALME-3M melanoma): 69.5 µM
TGI (PC-3 prostate): > 100 µM
TGI (SF-268 CNS): > 100 µM
TGI (SK-OV-3 ovarian): 66 µM
TGI (MDA-MB-435): 46.6 µM
TGI (SR leukemia): > 100 µM
TGI (SF-295 CNS): 81.7 µM
TGI (ACHN renal): > 100 µM
TGI (MDA-MB-231 breast): 79.7 µM
TGI (OVCAR-8 ovarian): > 100 µM
TGI (IGROV1 ovarian): > 100 µM
TGI (HCT-116 colon): 35.6 µM
TGI (SK-MEL-28 melanoma): > 100 µM
TGI (SNB-75 CNS): > 100 µM
TGI (UO-31 renal): > 100 µM
TGI (COLO 205 colon): 39.6 µM
TGI (EKVX NSCLC): > 100 µM
TGI (MDA-N): 39.1 µM
TGI (HL-60(TB) leukemia): > 100 µM
TGI (OVCAR-5 ovarian): > 100 µM
TGI (OVCAR-3 ovarian): 59.4 µM
TGI (HS 578T breast): > 100 µM
TGI (NCI/ADR-RES ovarian): > 100 µM
TGI (SN12C renal): 65.5 µM
TGI (A549 NSCLC): > 100 µM
TGI (HT29 colon): > 100 µM
TGI (T-47D breast): 56.5 µM
TGI (UACC-62 melanoma): 40.7 µM
TGI (MCF7 breast): 89.1 µM
TGI (HOP-92 NSCLC): > 100 µM
TGI (LOX IMVI melanoma): 30.9 µM
TGI (786-0 renal): > 100 µM
